Experiment [1] concerns the target Bcl-2 protein (histag-Bcl-2, UniProtKB P10415) (Homo sapiens (Human), UniProt P10415). In words: Inhibition of Bcl-2 by the fluorescence polarisation technique. The class given is binding. The following applies: for IC50: fluorescence polarisation test, method A, or method B where underlined (underlining not visible), read-out: IC50 (nM) Bcl-2 FP. From the text: Inhibition of Bcl-2 by the fluorescence polarisation technique
(In general: In fluorescence polarisation assays a small probe gives low polarisation when free and higher when bound to something large.)

For experiment [2], the system named is RS4;11 leukaemia tumour line. As to the kind of experiment: In vitro cytotoxicity, Microculture Tetrazolium Assay (MTT). Conditions: Homo sapiens; RS4;11 cells, 48 hours exposure. The class given is cell-based. As for the experimental part:
The cytotoxicity studies were carried out on the RS4;11 leukaemia tumour line.
The cells are distributed onto microplates and exposed to the test compounds for 48 hours. The cell viability is then quantified by a colorimetric assay, the Microculture Tetrazolium Assay (Cancer Res., 1987, 47, 939-942).

SMILES strings stand for the structures. Where a name gives a salt, the structure may show the parent alone.

Bcl-2 protein, sequence (P10415 whole entry): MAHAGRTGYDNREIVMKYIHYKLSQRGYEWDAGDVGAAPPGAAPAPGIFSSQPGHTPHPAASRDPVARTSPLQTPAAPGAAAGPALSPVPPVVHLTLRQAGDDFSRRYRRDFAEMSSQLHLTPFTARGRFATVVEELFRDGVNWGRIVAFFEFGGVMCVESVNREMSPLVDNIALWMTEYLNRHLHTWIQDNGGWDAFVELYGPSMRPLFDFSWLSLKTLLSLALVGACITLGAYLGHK

As usually defined, the IC50 is the point on the concentration scale where inhibition reaches its midpoint. In the case of `Cc1cc(C(=O)N(c2ccc(O)cc2)c2ccc3c(ccn3C)c2)cn1-c1cc(Cl)ccc1C(=O)N1Cc2ccccc2C[C@H]1CN1CCN(C)CC1` [Example 89, 1-(5-Chloro-2-{[(3S)-3-[(4-methylpiperazin-1-yl)methyl]-3,4-dihydroisoquinolin-2(1H)-yl]carbonyl}phenyl)-N-(4-hydroxyphenyl)-5-methyl-N-(1-methyl-1H-indol-5-yl)-1H-pyrrole-3-carboxamide], the results for the IC50 in experiment [1] and in experiment [2] were 4.2 nM and 59.8 nM, respectively.
For `Cc1cc(C(=O)N(c2ccc(O)cc2)c2ccc3c(ccn3C)c2)cn1-c1cc2c(cc1C(=O)N1Cc3ccccc3C[C@H]1CN1CCN(C)CC1)OCO2` [Example 90, N-(4-Hydroxyphenyl)-5-methyl-N-(1-methyl-1H-indol-5-yl)-1-(6-{[(3S)-3-[(4-methylpiperazin-1-yl)methyl]-3,4-dihydroisoquinolin-2(1H)-yl]carbonyl}-1,3-benzodioxol-5-yl)-1H-pyrrole-3-carboxamide], in that order: 3.6 nM and 76.6 nM.
Taken in the same sequence, the figures for `Cc1ccc(N(C(=O)c2cc(C)n(-c3cc(Cl)ccc3C(=O)N3Cc4ccccc4C[C@H]3CN3CCN(C)CC3)c2)c2ccc(O)cc2)cc1` [Example 91, 1-(5-Chloro-2-{[(3S)-3-[(4-methylpiperazin-1-yl)methyl]-3,4-dihydroisoquinolin-2(1H)-yl]carbonyl}phenyl)-N-(4-hydroxyphenyl)-5-methyl-N-(4-methylphenyl)-1H-pyrrole-3-carboxamide] were 5.3 nM and 172 nM.
Taken in the same sequence, the figures for `Cc1cc(C(=O)N(c2ccc(O)cc2)c2ccc3[nH]ccc3c2)cn1-c1cc(Cl)cc(Cl)c1C(=O)N1Cc2ccccc2C[C@H]1CN1CCN(C)CC1` [Example 92, 1-(3,5-Dichloro-2-{[(3S)-3-[(4-methylpiperazin-1-yl)methyl]-3,4-dihydroisoquinolin-2(1H)-yl]carbonyl}phenyl)-N-(4-hydroxyphenyl)-N-(1H-indol-5-yl)-5-methyl-1H-pyrrole-3-carboxamide] were 9.6 nM and 202 nM.
In the case of `CN1CCN(C[C@@H]2Cc3ccccc3CN2C(=O)c2ccc(Cl)cc2-n2cc(C(=O)N(c3ccc(O)cc3)c3ccc4c(ccn4C)c3)c3ccccc32)CC1` [Example 93, 1-(5-Chloro-2-{[(3S)-3-[(4-methylpiperazin-1-yl)methyl]-3,4-dihydroisoquinolin-2(1H)-yl]carbonyl}phenyl)-N-(4-hydroxyphenyl)-N-(1-methyl-1H-indol-5-yl)-1H-indole-3-carboxamide], the IC50 in experiment [1] was 3.3 nM; in experiment [2], 75.4 nM.
Taken in the same sequence, the figures for `Cc1cc(C(=O)N(c2ccc(O)cc2)c2ccc3c(ccn3C)c2)cn1-c1cc2c(cc1C(=O)N1Cc3ccccc3C[C@H]1CN(C)C)OCO2` [Example 94, 1-(6-{[(3S)-3-[(Dimethylamino)methyl]-3,4-dihydroisoquinolin-2(1H)-yl]carbonyl}-1,3-benzodioxol-5-yl)-N-(4-hydroxyphenyl)-5-methyl-N-(1-methyl-1H-indol-5-yl)-1H-pyrrole-3-carboxamide hydrochloride] were 7.9 nM and 118 nM.
For `Cc1cc(C(=O)N(c2ccc(O)cc2)c2ccc3c(ccn3C)c2)cn1-c1cc(Cl)ccc1C(=O)N1Cc2ccccc2C[C@H]1CN(C)C` [Example 95, 1-(5-Chloro-2-{[(3S)-3-[(dimethylamino)methyl]-3,4-dihydroisoquinolin-2(1H)-yl]carbonyl}phenyl)-N-(4-hydroxyphenyl)-5-methyl-N-(1-methyl-1H-indol-5-yl)-1H-pyrrole-3-carboxamide hydrochloride], in that order: 6.4 nM and 264 nM.
For `Cc1ccc(N(C(=O)c2cc(C)n(-c3cc4c(cc3C(=O)N3Cc5ccccc5C[C@H]3CN3CCN(C)CC3)OCO4)c2)c2ccc(O)cc2)cc1` [Example 96, N-(4-Hydroxyphenyl)-5-methyl-N-(4-methylphenyl)-1-(6-{[(3S)-3-[(4-methylpiperazin-1-yl)methyl]-3,4-dihydroisoquinolin-2(1H)-yl]carbonyl}-1,3-benzodioxol-5-yl)-1H-pyrrole-3-carboxamide], in that order: 3.9 nM and 157 nM.
Regarding `CN1CCN(C[C@@H]2Cc3ccccc3CN2C(=O)c2cc3c(cc2-n2cc(C(=O)N(c4ccc(O)c(F)c4)c4ccc5c(ccn5C)c4)c4ccccc42)OCO3)CC1` [Example 97, N-(3-Fluoro-4-hydroxyphenyl)-N-(1-methyl-1H-indol-5-yl)-1-(6-{[(3S)-3-[(4-methylpiperazin-1-yl)methyl]-3,4-dihydroisoquinolin-2(1H)-yl]carbonyl}-1,3-benzodioxol-5-yl)-1H-indole-3-carboxamide hydrochloride], the IC50 was 6.1 nM in experiment [1] and 73.2 nM in experiment [2].
As a reminder, the inhibition is the relative decrease from the control value, in per cent. Consider `Cc1ccc(N(C(=O)c2cn(-c3cc4c(cc3C(=O)N3Cc5ccccc5C[C@H]3CN3CCN(C)CC3)OCO4)c3ccccc23)C2CCNCC2)cc1` [Example 98, N-(4-Methylphenyl)-1-(6-{[(3S)-3-[(4-methylpiperazin-1-yl)methyl]-3,4-dihydroisoquinolin-2(1H)-yl]carbonyl}-1,3-benzodioxol-5-yl)-N-(piperidin-4-yl)-1H-indole-3-carboxamide bis-hydrochloride], for which the inhibition at 10 µM in experiment [1] (read-out: percentage fluorescence polarisation inhibition (Bcl-2 FP)) was found to be 45.1%. This compound also had a half-inhibitory concentration (IC50) in experiment [2] of 1880 nM.
`CCn1ccc2cc(N(C(=O)c3cn(-c4cc5c(cc4C(=O)N4Cc6ccccc6C[C@H]4CN4CCN(C)CC4)OCO5)c4ccccc34)c3ccc(O)cc3)ccc21` [Example 99, N-(1-Ethyl-1H-indol-5-yl)-N-(4-hydroxyphenyl)-1-(6-{[(3S)-3-[(4-methylpiperazin-1-yl)methyl]-3,4-dihydroisoquinolin-2(1H)-yl]carbonyl}-1,3-benzodioxol-5-yl)-1H-indole-3-carboxamide]: the half-maximal inhibitory concentration (IC50) in experiment [1] is 4.8 nM; in experiment [2] it was 41.7 nM.
For `CC(C)n1ccc2cc(N(C(=O)c3cn(-c4cc5c(cc4C(=O)N4Cc6ccccc6C[C@H]4CN4CCN(C)CC4)OCO5)c4ccccc34)c3ccc(O)cc3)ccc21` [Example 100, N-(4-Hydroxyphenyl)-1-(6-{[(3S)-3-[(4-methylpiperazin-1-yl)methyl]-3,4-dihydroisoquinolin-2(1H)-yl]carbonyl}-1,3-benzodioxol-5-yl)-N-[1-(propan-2-yl)-1H-indol-5-yl]-1H-indole-3-carboxamide], in that order: 6.9 nM and 43.4 nM.
Consider `Cc1cc(C(=O)N(c2ccc(O)cc2)c2ccc3[nH]ccc3c2)cn1-c1cc(Br)ccc1C(=O)N1Cc2ccccc2C[C@H]1C(=O)N1CCN(C)CC1` [Example 101, 1-(5-Bromo-2-{[(3S)-3-[(4-methylpiperazin-1-yl)carbonyl]-3,4-dihydroisoquinolin-2(1H)-yl]carbonyl}phenyl)-N-(4-hydroxyphenyl)-N-(1H-indol-5-yl)-5-methyl-1H-pyrrole-3-carboxamide], for which the 50% inhibitory concentration (IC50) was found to be 99.1 nM in experiment [1] and 1880 nM in experiment [2].
Taken in the same sequence, the figures for `Cc1cc(C(=O)N(c2ccc(O)cc2)c2ccc3[nH]ccc3c2)cn1-c1cc(Br)ccc1C(=O)N1Cc2ccccc2C[C@H]1CN1CCN(C2CCC2)CC1` [Example 102, 1-(5-Bromo-2-{[(3S)-3-[(4-cyclobutylpiperazin-1-yl)methyl]-3,4-dihydroisoquinolin-2(1H)-yl]carbonyl}phenyl)-N-(4-hydroxyphenyl)-N-(1H-indol-5-yl)-5-methyl-1H-pyrrole-3-carboxamide] were 8.4 nM and 108 nM.

The values above are taken from patent US9765056B2, “Indole and pyrrole compounds, a process for their preparation and pharmaceutical compositions containing them” (LES LABORATOIRES SERVIER, priority 2013, dated 2017).
